Data taken from US8329675B2, “Inhibitors of fatty acid amide hydrolase” (Infinity Pharmaceuticals, Inc., priority 2006, dated 2012).

biological target: T1, human FAAH (Homo sapiens, UniProt O00519); experiment: Human FAAH biochemical inhibition assay (AMC arachidonoyl amide fluorescence); details: Table 2, human FAAH (no asterisk); read-out: Activity (Ki)
T1 construct: host or cells: COS-7 cells, transient transfection; 13,000 g membrane fraction solubilised in 1% Triton X-100
T1 sequence (O00519 1-579): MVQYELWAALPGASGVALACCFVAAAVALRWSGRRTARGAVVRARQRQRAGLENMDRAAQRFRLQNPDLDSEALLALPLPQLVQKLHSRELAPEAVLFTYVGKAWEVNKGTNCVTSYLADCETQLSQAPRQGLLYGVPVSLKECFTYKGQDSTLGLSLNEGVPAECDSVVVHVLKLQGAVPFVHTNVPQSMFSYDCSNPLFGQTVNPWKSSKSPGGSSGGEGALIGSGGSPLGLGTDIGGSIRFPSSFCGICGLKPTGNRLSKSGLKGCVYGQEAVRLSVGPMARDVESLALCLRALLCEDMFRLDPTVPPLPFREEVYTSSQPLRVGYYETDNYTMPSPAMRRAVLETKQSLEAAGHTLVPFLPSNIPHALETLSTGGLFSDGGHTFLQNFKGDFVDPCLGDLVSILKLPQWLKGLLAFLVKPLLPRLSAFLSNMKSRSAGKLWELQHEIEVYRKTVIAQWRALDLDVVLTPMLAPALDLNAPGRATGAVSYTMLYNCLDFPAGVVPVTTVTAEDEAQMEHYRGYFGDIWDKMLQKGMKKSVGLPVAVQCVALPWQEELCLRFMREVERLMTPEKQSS
Summary of the method: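 Solubilized membrane fraction from COS-7 cells transfected with human FAAH, used at a final 0.05 mg/ml in 50 mM Hepes pH 7.5, 1 mM EDTA, 0.2% Triton X-100. Inhibitor pre-incubated 30 min at room temperature; 20 uM final AMC arachidonoyl amide added, reaction run 4 h at room temperature, fluorescence read.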

Row | SMILES | Ki
1 | OB(O)c1ccc(OC[C@@H](COCc2ccccc2)OCc2ccccc2)cc1F [II-108] | 0.01 to 0.1 µM
2 | OB(O)c1ccc(OCCc2cccnc2)cc1F [II-109] | < 0.01 µM
3 | OB(O)c1ccc(OCCc2ccncc2)cc1F [II-110] | < 0.01 µM
4 | OB(O)c1ccc(COCc2cccc3ccccc23)cc1 [II-111] | < 0.01 µM
5 | CN(Cc1ccc(B(O)O)c2ccccc12)c1ccccc1 [II-112] | > 1 µM
6 | OB(O)c1cccc(OCCc2ccccc2)c1 [II-113] | 0.01 to 0.1 µM
7 | OB(O)c1cccc(Oc2ccccc2)c1 [II-114] | < 0.01 µM
8 | OB(O)c1cccc(OCCCc2ccccc2)c1 [II-115] | 0.01 to 0.1 µM
9 | CCO/N=C(\c1ccccc1)c1ccc(B(O)O)cc1 [II-116] | 0.01 to 0.1 µM
10 | OB(O)c1ccc(CCOc2ccccc2)cc1 [II-117] | 0.01 to 0.1 µM
11 | OB(O)c1ccc(CNc2cccc3ccccc23)cc1 [II-118] | > 1 µM
12 | OB(O)c1ccc(COc2cccc3ccccc23)cc1 [II-119] | < 0.01 µM
13 | OB(O)c1ccc(OCCCOc2ccccn2)cc1 [II-120] | 0.01 to 0.1 µM
14 | OB(O)c1cccc(CCOc2ccccc2)c1 [II-121] | 0.01 to 0.1 µM
15 | O=c1ccccn1CCCOc1ccc(B(O)O)cc1 [II-122] | 0.01 to 0.1 µM
16 | OB(O)c1ccc(COC2CCCc3ccccc32)cc1 (centres unmarked) [II-123] | 0.01 to 0.1 µM
17 | OB(O)c1ccc(COC2CCc3ccccc32)cc1 (centres unmarked) [II-124] | < 0.01 µM
18 | Cn1ccc2cc(B(O)O)ccc21 [II-125] | > 1 µM
19 | CC(OCc1ccc(B(O)O)cc1)c1ccccc1 (centres unmarked) [II-126] | < 0.01 µM
20 | OB(O)c1ccc(COC2CCCCC2)cc1 [II-127] | < 0.01 µM
21 | OB(O)c1ccc(OCCCOc2ccccc2)cc1 [II-128] | < 0.01 µM
22 | OB(O)c1ccc(OCCOc2ccccc2)cc1 [II-129] | < 0.01 µM
23 | C/C(=N\OCc1ccccc1)c1ccc(B(O)O)cc1 [II-130] | < 0.01 µM
24 | CN(Cc1ccccc1)Cc1ccc(B(O)O)cc1 [II-131] | < 0.01 µM
25 | OB(O)c1ccc(COCc2ccccc2)cc1 [II-132] | < 0.01 µM
26 | CC(C)(C)OC(=O)n1cncc1COc1ccc(B2OC(C)(C)C(C)(C)O2)c(F)c1 [II-133] | < 0.01 µM

Row | SMILES | Ki
27 | OB(O)c1ccc(OCc2ccn[nH]2)cc1F [II-134] | 0.01 to 0.1 µM
28 | OB(O)c1ccc(OCc2cnco2)cc1F [II-135] | 0.01 to 0.1 µM
29 | CC(Cc1ccccc1)Oc1ccc(B(O)O)c(F)c1 (centres unmarked) [II-136] | < 0.01 µM
30 | C[C@H](COc1ccc(B(O)O)c(F)c1)c1ccccc1 [II-137] | < 0.01 µM
31 | OB(O)c1ccc(OC2Cc3ccccc3C2)cc1F [II-138] | < 0.01 µM
32 | C[C@@H](COc1ccc(B(O)O)c(F)c1)c1ccccc1 [II-139] | < 0.01 µM
33 | O=C(COc1ccc(B(O)O)c(F)c1)c1ccccc1 [II-140] | < 0.01 µM
34 | CN(Cc1ccc(B(O)O)cc1)c1ccccc1 [II-141] | < 0.01 µM
35 | OB(O)c1ccc(CN2CCc3ccccc32)cc1 [II-142] | < 0.01 µM
36 | OB(O)c1ccc(CN2CCCc3ccccc32)cc1 [II-143] | < 0.01 µM
37 | O=C1c2ccc(B(O)O)cc2C(=O)N1c1ccccc1 [II-144] | 0.01 to 0.1 µM
38 | OB(O)c1ccc(Cn2ccc3ccccc32)cc1 [II-145] | < 0.01 µM
39 | Cc1cc(COc2ccc(B(O)O)c(F)c2)ccc1F [II-146] | < 0.01 µM
40 | CC1(C)OB(c2ccc(OCc3ccn[nH]3)cc2F)OC1(C)C [II-147] | 0.01 to 0.1 µM
41 | CC1(C)OB(c2ccc(OCc3cnco3)cc2F)OC1(C)C [II-148] | 0.01 to 0.1 µM
42 | OB(O)c1ccc(Oc2cccnc2)cc1F [II-149] | < 0.01 µM
43 | CC1(C)OB(c2ccc(Oc3cccnc3)cc2F)OC1(C)C [II-150] | < 0.01 µM
44 | O=C(OCc1ccccc1)c1cc(Oc2cccc(F)c2)ccc1B(O)O [II-151] | 0.01 to 1 µM
45 | OB(O)c1ccc(CNc2ccccc2)cc1 [II-152] | < 0.01 µM
46 | CC1(C)OB(c2ccc(Cn3ccc4ccccc43)cc2)OC1(C)C [II-153] | < 0.01 µM
47 | CC1(C)OB(c2ccc(CNc3ccccc3)cc2)OC1(C)C [II-154] | < 0.01 µM
48 | O=C(c1ccc(B(O)O)cc1)N(Cc1ccccc1)c1ccccc1 [II-155] | 0.01 to 0.1 µM
49 | OB(O)c1ccc(OCCCc2ccccc2)cc1F [II-156] | < 0.01 µM
50 | OB(O)c1ccc(CN(Cc2ccccc2)Cc2ccccc2)cc1 [II-157] | 0.01 to 1 µM
51 | OB(O)c1ccc(CN(c2ccccc2)c2ccccc2)cc1 [II-158] | > 1 µM
52 | OB(O)c1ccc(OCc2cncs2)cc1F [II-159] | 0.01 to 0.1 µM

Row | SMILES | Ki
53 | OB(O)c1ccc(OCc2cccnc2)cc1F [II-160] | 0.01 to 0.1 µM
54 | CC1(C)OB(c2ccc(OCc3cccnc3)cc2F)OC1(C)C [II-161] | 0.01 to 0.1 µM
55 | Nc1cc(Oc2cccc(F)c2)ccc1B(O)O [II-162] | > 1 µM
56 | CN(Cc1ccccc1)C(=O)c1ccc(B(O)O)cc1 [II-163] | 0.01 to 0.1 µM
57 | O=C(c1ccc(B(O)O)cc1)N1CCCCC1 [II-164] | 0.01 to 0.1 µM
58 | OB(O)c1ccc(OCCCCc2ccccc2)cc1 [II-165] | 0.01 to 0.1 µM
59 | CC1(C)OB(c2ccc(OCCCCc3ccccc3)cc2)OC1(C)C [II-166] | 0.01 to 0.1 µM
60 | OB(O)c1ccc(OCCc2ccccc2)cc1 [II-167] | < 0.01 µM
61 | CC1(C)OB(c2ccc(OCCc3ccccc3)cc2)OC1(C)C [II-168] | 0.01 to 0.1 µM
62 | OB(O)c1ccc(OCCCc2ccccc2)cc1 [II-169] | < 0.01 µM
63 | CC1(C)OB(c2ccc(OCCCc3ccccc3)cc2)OC1(C)C [II-170] | 0.01 to 0.1 µM
64 | C[C@@H](NC(=O)c1ccc(B(O)O)cc1)c1ccccc1 [II-171] | 0.01 to 0.1 µM
65 | C[C@H](NC(=O)c1ccc(B(O)O)cc1)c1ccccc1 [II-172] | 0.01 to 0.1 µM
66 | CN(C)c1cc(Oc2ccc(B(O)O)cc2)cc(Oc2cccc3ccccc23)c1 [II-173] | > 1 µM
67 | CC1(C)OB(c2ccc(OCc3cncs3)cc2F)OC1(C)C [II-174] | < 0.01 µM
68 | OB(O)c1ccc(OCc2ccccn2)cc1F [II-175] | > 1 µM
69 | CC1(C)OB(c2ccc(OCc3ccccn3)cc2F)OC1(C)C [II-176] | < 0.01 µM
70 | OB(O)c1ccc(OCc2ccncc2)cc1F [II-177] | 0.01 to 0.1 µM
71 | CC1(C)OB(c2ccc(CN(Cc3ccccc3)Cc3ccccc3)cc2)OC1(C)C [II-178] | > 1 µM
72 | CC1(C)OB(c2ccc(OCc3ccncc3)cc2F)OC1(C)C [II-179] | 0.01 to 0.1 µM
73 | CN(C)c1cc(Oc2ccc(B(O)O)cc2)cc(Oc2cccc(F)c2)c1 [II-180] | > 1 µM
74 | CN(C)c1cc(Oc2ccc(Cl)cc2)cc(Oc2ccc(B(O)O)cc2)c1 [II-181] | 0.01 to 1 µM
75 | CN(C)c1ccc(/N=N/c2ccc(B(O)O)cc2)cc1 [II-182] | 0.01 to 0.1 µM
76 | COC(=O)c1cc(Oc2cccc(F)c2)ccc1B(O)O [II-183] | 0.01 to 0.1 µM
77 | c1ccc(-c2ccc(B3CCCO3)cc2)cc1 [II-184] | 0.01 to 0.1 µM
78 | CN(C)c1ccc(/N=N/c2ccc(B3OC(C)(C)C(C)(C)O3)cc2)cc1 [II-185] | 0.01 to 1 µM

Row | SMILES | Ki
79 | c1ccc(B2CCCO2)cc1 [II-186] | > 1 µM
80 | Cc1cc(NCc2ccc(B3OC(C)(C)C(C)(C)O3)cc2)ccc1F [II-187] | 0.01 to 0.1 µM
81 | Cc1cc(CNc2ccc(B3OC(C)(C)C(C)(C)O3)cc2)ccc1F [II-188] | > 1 µM
82 | OB(O)c1ccc(/C=C\c2ccccc2)cc1 [II-189] | > 1 µM
83 | OB(O)c1ccc(Oc2cccc(Oc3cccc4ccccc34)c2)cc1 [II-190] | 0.01 to 0.1 µM
84 | OB(O)c1ccc(Oc2cccc(Oc3ccc(Cl)cc3)c2)cc1 [II-191] | < 0.01 µM
85 | COc1ccc(Oc2cc(Oc3ccc(B(O)O)cc3)cc(N(C)C)c2)cc1 [II-192] | 0.01 to 0.1 µM
86 | COc1ccc(Oc2cccc(Oc3ccc(B(O)O)cc3)c2)cc1 [II-193] | < 0.01 µM
87 | OB(O)c1ccc(Oc2cccc(F)c2)c(F)c1F [II-194] | < 0.01 µM
88 | OB(O)c1c(F)cc(Oc2cccc(F)c2)cc1F [II-195] | < 0.01 µM
89 | OB(O)c1ccc(Oc2cccc(N3CCCCC3)c2)cc1F [II-196] | > 1 µM
90 | OB(O)c1ccc(Oc2cccc(N3CCCC3)c2)cc1F [II-197] | 0.01 to 0.1 µM
91 | OB(O)c1cc(F)c(Oc2cccc(F)c2)c(F)c1 [II-198] | < 0.01 µM
92 | Cc1cc(CSc2ccc(B(O)O)c(F)c2)ccc1F [II-199] | < 0.01 µM
93 | CNc1cccc(Oc2ccc(B(O)O)c(F)c2)c1 [II-200] | < 0.01 µM
94 | CN(C)c1cccc(Oc2ccc(B(O)O)c(F)c2)c1 [II-201] | 0.01 to 0.1 µM
95 | OB(O)c1ccc(Oc2cccc(F)c2)cc1C(F)(F)F [II-202] | 0.01 to 0.1 µM
96 | N#Cc1cc(Oc2cccc(F)c2)ccc1B(O)O [II-203] | < 0.01 µM
97 | COc1cc(Oc2cccc(F)c2)ccc1B(O)O [II-204] | < 0.01 µM
98 | CN(C)c1cccc(Oc2ccc(B(O)O)cc2F)c1 [II-205] | < 0.01 µM
99 | COc1cccc(Oc2ccc(B(O)O)c(F)c2)c1 [II-206] | < 0.01 µM
100 | OB(O)c1ccc(Oc2cccc(F)c2)cc1Cl [II-207] | < 0.01 µM
101 | Cc1cc(-c2cccc(F)c2)ccc1B(O)O [II-208] | 0.01 to 0.1 µM
102 | Cc1cc(Oc2cccc(F)c2)ccc1B(O)O [II-209] | 0.01 to 0.1 µM
103 | OB(O)c1ccc(Oc2ccc(F)c(F)c2)cc1F [II-210] | < 0.01 µM
104 | Cc1ccc(Oc2ccc(B(O)O)c(F)c2)cc1Cl [II-211] | < 0.01 µM
